Key:
Assay type in all cases: in vivo
[1] = tested on: larvae of the banded cucumber beetle (Diabrotica balteata); experiment: Diabrotica balteata spray test; settings: 168 h, after 7 days, read-out: activity (efficacy: seedlings grown); for pest or weed control at 500 g/ha: application rate 500 g/ha (=160 pg/well); for pest or weed control at 100 g/ha: application rate 100 g/ha (=32 pg/well)
Summary of the method: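 Read-out is % efficacy at day 7, 0% meaning no seedling growth and 100% growth equal to uninfested untreated controls. Test solutions (acetone/DMF concentrate diluted with water carrying 1000 ppm emulsifier) were sprayed onto 1-day-germinated wheat seeds, 5 per well, before infestation with 10-20 larvae.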

[2] = tested on: brown planthopper (Nilaparvata lugens); experiment: Nilaparvata lugens spray test; settings: 96 h, after 4 days; for mortality at 500 g/ha: application rate 500 g/ha; for mortality at 100 g/ha: application rate 100 g/ha
Experimental: Nilaparvata lugens—Spray Test
Solvent: 78.0 parts by weight of acetone • • 1.5 parts by weight of dimethylformamide
Emulsifier: alkylarylpolyglycol ether
To produce a suitable preparation of active compound, 1 part by weight of active compound is mixed with the stated amount of solvents and is diluted with water, containing an emulsifier concentration of 1000 ppm, to the desired concentration. Further test concentrations are prepared by dilution with emulsifier containing water.
Rice plants (Oryza sativa) are sprayed with a preparation of the active ingredient of the desired concentration and the plants are infested with the brown planthopper (Nilaparvata lugens).
After 4 days mortality in % is determined. 100% means all planthoppers have been killed and 0% means none of the planthoppers have been killed.

[3] = tested on: larvae of the southern green stink bug (Nezara viridula); experiment: Nezara viridula spray test; settings: 96 h, after 4 days; for mortality at 500 g/ha: application rate 500 g/ha; for mortality at 100 g/ha: application rate 100 g/ha
Summary of the method: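 Larva-infested barley (Hordeum vulgare) plants received a spray of test solution prepared from an acetone/DMF concentrate diluted in emulsifier-containing water (1000 ppm). Percent kill read 4 days later; 0% means no stink bugs dead.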

[4] = tested on: green peach aphid (Myzus persicae); experiment: Myzus persicae spray test; settings: 120 h, after 5 days; for mortality at 100 g/ha: application rate 100 g/ha; for mortality at 500 g/ha: application rate 500 g/ha
Summary of the method: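 Chinese cabbage leaf disks carrying all instars of M. persicae sprayed with compound in acetone/DMF, diluted in water with 1000 ppm alkylarylpolyglycol ether emulsifier. Percent mortality scored after 5 days (100% = all aphids killed).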

[5] = tested on: adult engorged female ticks (Rhipicephalus microplus); experiment: Rhipicephalus (Boophilus) microplus injection test; settings: 168 h, egg deposition after 7 days, read-out: activity (efficacy: infertile eggs); for pest or weed control at 0.02 mg: application rate 20 μg/animal; for pest or weed control at 4 pg: application rate 4 pg/animal
Summary of the method: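 Abdominal injection, 1 μL compound/DMSO, n=5 engorged adult females; climate-chamber incubation. Readout d7: fertile egg laying; doubtful eggs held to hatch (~42 d). % efficacy = infertile eggs (100% all infertile).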

[6] = tested on: fall armyworm larvae (Spodoptera frugiperda); experiment: Spodoptera frugiperda spray test; settings: 168 h, read-out: activity (mortality)
Summary of the method: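 Larvae of fall armyworm placed on dried maize leaf sections previously sprayed with emulsified compound (acetone/DMF solvent, water with 1000 ppm emulsifier). Percent of caterpillars killed recorded on day 7, 0–100% scale.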

[7] = tested on: adult cat fleas (Ctenocephalides felis); experiment: Ctenocephalides felis in-vitro contact test, adult cat flea; settings: application rate 5 μg/cm^2 (=500 g/ha), after 48 hours, read-out: activity (efficacy: fleas dead or moribund)
Summary of the method: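 Efficacy, as % of fleas dead or moribund, was read 48 h after 5-10 adult cat fleas were confined in glass tubes whose walls carried dried compound film (900 ppm, […]). Fleas failing to escape upward from a 45-50° C plate within 5 min counted as dead or moribund.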

[8] = tested on: Rhipicephalus microplus larvae (strain Parkhurst, resistant against synthetic pyrethroids); experiment: Rhipicephalus (Boophilus) microplus in-vitro contact test, larval cattle tick; settings: after 48 hours, read-out: activity (efficacy: larvae dead or moribund); for pest or weed control at 100 g/ha: application rate 1 pg/cm^2 (=100 g/ha); for pest or weed control at 500 g/ha: application rate 5 pg/cm^2 (=500 g/ha)
Summary of the method: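 Larvae (20-50 per tube) exposed to dry compound film on glass tube walls, 5 μg/cm^2 at 900 ppm, applied from acetone. After 48 h at 27° C./85% RH, tubes tapped and negative geotaxis scored; efficacy as percent dead or moribund larvae.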

[9] = tested on: Aedes aegypti strain MONHEIM; experiment: Aedes aegypti test (AEDSAE surface treatment & contact assay); settings: 24 hours after contact, read-out: efficacy (mortality); for mortality at 20 mg/m2: surface concentration 20 mg/m^2, exposure 30 minutes; for mortality at 4 mg/m2: surface concentration 4 mg/m^2, exposure 30 minutes
Summary of the method: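 Percent mortality was read 24 h after adult MONHEIM mosquitoes were held for 30 min on a tile treated with compound. Compound applied from acetone solution (2 mg/ml) containing 2000 ppm rapeseed oil methyl ester, after evaporation.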

[10] = tested on: adult unfed cat fleas (Ctenocephalides felis); experiment: Ctenocephalides felis oral test; settings: 48 h, read-out: activity (mortality)
Summary of the method: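 About 20 adult unfed fleas fed through parafilm on cattle blood containing compound (DMSO stock diluted in blood), blood held at 37 °C and fleas at room temperature. Mortality (%) scored after 2 days.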

[11] = tested on: green peach aphid (Myzus persicae); experiment: Myzus persicae oral test; settings: 120 h, application rate 4 ppm, after 5 days
Summary of the method: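 Five-day oral feeding assay measuring percent mortality of a mixed aphid population that draws compound-containing sugared IPL41 medium through sealing parafilm; the test preparation derives from 1 part compound per 100 parts acetone, diluted with water.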

[12] = tested on: southern root-knot nematode (Meloidogyne incognita); experiment: Meloidogyne incognita test; settings: 336 h, application rate 20 ppm, after 14 days, read-out: nematicidal activity (based on gall formation)
Experimental: Meloidoyne incognita—Test
Solvent: 125.0 parts by weight of acetone
To produce a suitable preparation of active compound, 1 part by weight of active compound is mixed with the stated amount of solvent, and the concentrate is diluted with water to the desired concentration.
Vessels are filled with sand, a solution of the active ingredient, a suspension containing eggs and larvae of the southern root-knot nematode (Meloidogyne incognita) and salad seeds. The salad seeds germinate and the seedlings grow. Galls develop in the roots.
After 14 days the nematicidal activity is determined based on the percentage of gall formation. 100% means no galls were found and 0% means the number of galls found on the roots of the treated plants was equal to that in untreated control plants.

[13] = tested on: Musca domestica strain WHO-N; experiment: Musca domestica test (MUSCDO surface treatment & contact assay); settings: 24 hours after contact, read-out: efficacy (mortality); for mortality at 4 mg/m2: surface concentration 4 mg/m^2, exposure 30 minutes; for mortality at 20 mg/m2: surface concentration 20 mg/m^2, exposure 30 minutes
Experimental: Musca domestica Test (MUSCDO Surface Treatment & Contact Assay)
(§1) Solvent: Aceton+2000 ppm rapeseed oil methyl ester (RME)
(§2) In order to produce a sufficient, active ingredient containing solution it is necessary to solve the test compound in the solvent-mix (acetone at 2 mg/ml/RME 2000 ppm). This solution is pipetted onto a glazed tile and after evaporation of the acetone, adult flies of the species Musca domestica strain WHO—N are placed onto the dried surface. The exposure time is 30 minutes. Mortality in percent (%) is determined 24 hours after contact of the insects to the treated surface. 100% mortality means that all tested insects are dead, whereas 0% means that no insect died.

[14] = tested on: adult brown dog ticks (Rhipicephalus sanguineus); experiment: Rhipicephalus sanguineus in-vitro contact test, adult brown dog ticks; settings: after 48 hours, read-out: activity (efficacy: ticks dead or moribund); for pest or weed control at 5 µg/cm2, 500 g/ha: application rate 5 μg/cm^2 (=500 g/ha)
Summary of the method: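 Read-out: % efficacy as dead or moribund ticks, judged 48 h after exposure by failure to climb away from a 45-50° C heating plate within 5 min. Tubes were coated with acetone solution (900 ppm = 5 μg/cm^2 surface dose) and held 5-10 adults each at room temperature.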

[15] = tested on: Anopheles funestus strain FUMOZ-R; experiment: Anopheles funestus test (ANPHFU surface treatment & contact assay); settings: 24 hours after contact, read-out: efficacy (mortality)
Experimental: Anopheles funestus Test (ANPHFU Surface Treatment & Contact Assay)
as §1
as §2, with “mosquitoes” for “flies”, “Anopheles funestus” for “Musca domestica”, “FUMOZ-R (Hunt et al., Med. Vet. Entomol. 2005 September; 19(3): 271-275)” for “WHO—N”

Row | SMILES | pest or weed control at 500 g/ha [1] [%] | mortality at 500 g/ha [2] [%] | mortality at 500 g/ha [3] [%] | mortality at 100 g/ha [4] [%] | pest or weed control at 0.02 mg [5] [%] | mortality at 100 g/ha [6] [%] | pest or weed control at 5 µg/cm2 [7] [%] | pest or weed control at 100 g/ha [8] [%] | pest or weed control at 500 g/ha [8] [%] | mortality at 20 mg/m2 [9] [%] | mortality at 100 ppm [10] [%] | mortality at 4 ppm [11] [%] | pest or weed control at 100 g/ha [1] [%] | mortality at 100 g/ha [3] [%] | pest or weed control at 4 pg [5] [%] | pest or weed control at 20 ppm [12] [%] | mortality at 4 mg/m2 [13] [%] | mortality at 20 mg/m2 [13] [%] | further results
1 | CCc1nc([C@H](C)NC(=O)c2cc(Cl)cc(S(C)(=O)=O)c2)n(-c2ccc(C#N)cn2)n1 [I-3] | 100 | 100 | 100 | 100 | 100 | 100 | 90 | 100 | 100 | 80 to 100 | 100 | 100 | – | – | – | – | – | – | mortality at 500 g/ha [4]: 100%; mortality at 500 g/ha [6]: 100%
2 | COc1nc([C@H](C)NC(=O)c2cc(Cl)cc(S(C)(=O)=O)c2)n(-c2ccc(C#N)cn2)n1 [I-7] | 100 | 90 | 100 | 100 | 100 | 100 | 100 | 100 | 100 | – | 100 | 100 | 100 | 100 | 100 | – | – | – | mortality at 500 g/ha [4]: 90%; mortality at 500 g/ha [6]: 100%
3 | CCS(=O)(=O)c1cc(Cl)cc(C(=O)N[C@@H](C)c2nc(C(C)C)nn2-c2ccc(C#N)cn2)c1 [I-17] | – | – | – | – | 100 | – | – | 80 | 80 | – | 90 | – | – | – | 100 | 90 | – | – | –
4 | C[C@H](NC(=O)c1cc(C2CC2)cc(S(=O)(=O)C2CC2)c1)c1nc(C2CC2)nn1-c1ccc(C#N)cn1 [I-56] | – | – | – | – | – | 100 | – | 100 | 100 | – | – | – | – | – | – | 100 | – | – | –
5 | C[C@H](NC(=O)c1cc(C(F)(F)F)cc(S(C)(=O)=O)c1)c1nc(C2CC2)nn1-c1ccc(C#N)cn1 [I-64] | – | – | – | 100 | – | 100 | – | – | – | 80 to 100 | – | 100 | 100 | 100 | – | – | 80 to 100 | 80 to 100 | mortality at 100 g/ha [2]: 100%
6 | C[C@H](NC(=O)c1cc(OC(F)(F)F)cc(S(C)(=O)=O)c1)c1nc(C2CC2)nn1-c1ccc(C#N)cn1 [I-81] | – | 100 | 100 | 90 | – | 100 | – | – | – | – | – | 100 | 100 | 100 | – | – | 80 to 100 | 80 to 100 | mortality at 4 mg/m2 [9]: 80 to 100%
7 | C[C@H](NC(=O)c1cc(OC(F)(F)F)cc(S(C)(=O)=O)c1)c1nc(C2CC2)nn1-c1ncc(Cl)cn1 [I-82] | – | 90 | 100 | 90 | – | 100 | – | – | – | 80 to 100 | – | 100 | 100 | 100 | – | – | 80 to 100 | 80 to 100 | –
8 | CC(NC(=O)c1cc(OC(F)(F)F)cc(C2CC2)c1)c1nc(I)nn1-c1ccc(C#N)cn1 (stereo not drawn) [I-83] | – | – | – | – | – | 100 | – | 100 | 100 | – | – | – | 100 | – | – | 100 | – | – | pest or weed control at 5 µg/cm2, 500 g/ha [14]: 80%
9 | CC(NC(=O)c1cc(OC(F)(F)F)cc(C2CC2)c1)c1nc(Br)nn1-c1ccc(C#N)cn1 (stereo not drawn) [I-84] | – | – | – | – | – | 100 | – | – | – | – | – | – | 100 | – | – | 100 | – | – | –
10 | C[C@H](NC(=O)c1cc(C#N)cc(S(C)(=O)=O)c1)c1ncnn1-c1ncccn1 [II-28] | 100 | 100 | 100 | – | 100 | – | 100 | – | – | 80 to 100 | – | 100 | – | 100 | 100 | – | – | – | mortality at 100 g/ha [2]: 100%; mortality at 4 mg/m2 ([15]; surface concentration 4 mg/m^2, exposure 30 minutes): 80 to 100%; mortality at 20 mg/m2 ([15]; surface concentration 20 mg/m^2, exposure 30 minutes): 80 to 100%; mortality at 4 mg/m2 [9]: 80 to 100%; pest or weed control at 100 g/ha ([14]; application rate 1 pg/cm^2 (=100 g/ha)): 100%; pest or weed control at 5 µg/cm2, 500 g/ha [14]: 100%

From patent US20260206761A1, “HETEROARYL-TRIAZOLE COMPOUNDS AS PESTICIDES” (Bayer Aktiengesellschaft, priority 2019, published 2026)
